Source: patent US20210267944A1 (BioXcel Therapeutics, Inc., priority 2018, published 2021)
Where a name gives a salt, the structure may show the parent alone. Read-outs that look alike come from different tables or passages of the source.

Details: for Respiration rate, Min / Systolic blood pressure, Max / Systolic blood pressure, Mean ± SD / Systolic blood pressure, Median / Systolic blood pressure, Min / Diastolic blood pressure Max / Diastolic blood pressure Mean ± SD / Diastolic blood pressure Median / Diastolic blood pressure Min / Pulse rate, Max / Pulse rate, Mean ± SD / Pulse rate, Median / Pulse rate, Min / Respiration rate, Max / Respiration rate, Mean ± SD / Respiration rate, Median: SDAT patients, IV infusion; for Subject stopping Criteria met (safety stoppage rule): subject 102
Method: Study drug IV infusion was to be stopped at any time if any of the following occurred: • There was more than 20 mm Hg decrease in systolic or diastolic blood pressure. • There was an isolated drop in Systolic BP<100 mm of Hg. • There was an isolated drop Diastolic BP<60 mm of Hg. • There was a decrease in heart rate of 20 beats per minute or a drop below 50 beats per minute. • Attainment of a RASS of −1 at the end of each 30 minutes infusion period.
Return to baseline parameters was defined as BP falling within 15 mm of Hg of baseline reading prior to drug administration or HR falling within 10 beats per minute of baseline reading prior to drug administration.

Cc1cccc([C@H](C)c2cnc[nH]2)c1C [dexmedetomidine hydrochloride]
Respiration rate, Min (01:15 Hr): 15 breaths/min | Systolic blood pressure, Max (01:15 Hr): 152 mm of Hg | Systolic blood pressure, Mean ± SD (01:15 Hr): 135.6 ± 13.94 mm of Hg | Systolic blood pressure, Median (01:15 Hr): 141.0 mm of Hg | Systolic blood pressure, Min (01:15 Hr): 110 mm of Hg | Diastolic blood pressure Max (01:30 Hr): 84 mm of Hg | Diastolic blood pressure Mean ± SD (01:30 Hr): 70.6 ± 8.14 mm of Hg | Diastolic blood pressure Median (01:30 Hr): 70.0 mm of Hg | Diastolic blood pressure Min (01:30 Hr): 62 mm of Hg | Pulse rate, Max (01:30 Hr): 94 beats/min | Pulse rate, Mean ± SD (01:30 Hr): 72.0 ± 14.66 beats/min | Pulse rate, Median (01:30 Hr): 71.0 beats/min | Pulse rate, Min (01:30 Hr): 52 beats/min | Respiration rate, Max (01:30 Hr): 25 breaths/min | Respiration rate, Mean ± SD (01:30 Hr): 18.6 ± 3.38 breaths/min | Respiration rate, Median (01:30 Hr): 19.0 breaths/min | Respiration rate, Min (01:30 Hr): 15 breaths/min | Systolic blood pressure, Max (01:30 Hr): 156 mm of Hg | Systolic blood pressure, Mean ± SD (01:30 Hr): 130.9 ± 13.44 mm of Hg | Systolic blood pressure, Median (01:30 Hr): 129.5 mm of Hg | Systolic blood pressure, Min (01:30 Hr): 112 mm of Hg | Diastolic blood pressure Max (01:45 Hr): 86 mm of Hg | Diastolic blood pressure Mean ± SD (01:45 Hr): 69.5 ± 11.82 mm of Hg | Diastolic blood pressure Median (01:45 Hr): 66.0 mm of Hg | Diastolic blood pressure Min (01:45 Hr): 60 mm of Hg | Pulse rate, Max (01:45 Hr): 100 beats/min | Pulse rate, Mean ± SD (01:45 Hr): 79.0 ± 14.23 beats/min | Pulse rate, Median (01:45 Hr): 79.0 beats/min | Pulse rate, Min (01:45 Hr): 61 beats/min | Respiration rate, Max (01:45 Hr): 23 breaths/min | Respiration rate, Mean ± SD (01:45 Hr): 18.6 ± 2.51 breaths/min | Respiration rate, Median (01:45 Hr): 18.0 breaths/min | Respiration rate, Min (01:45 Hr): 17 breaths/min | Systolic blood pressure, Max (01:45 Hr): 158 mm of Hg | Systolic blood pressure, Mean ± SD (01:45 Hr): 131.3 ± 23.43 mm of Hg | Systolic blood pressure, Median (01:45 Hr): 131.0 mm of Hg | Systolic blood pressure, Min (01:45 Hr): 105 mm of Hg | Diastolic blood pressure Max (02:00 Hr): 86 mm of Hg | Diastolic blood pressure Mean ± SD (02:00 Hr): 78.7 ± 11.02 mm of Hg | Diastolic blood pressure Median (02:00 Hr): 84.0 mm of Hg | Diastolic blood pressure Min (02:00 Hr): 66 mm of Hg | Pulse rate, Max (02:00 Hr): 94 beats/min | Pulse rate, Mean ± SD (02:00 Hr): 77.3 ± 20.82 beats/min | Pulse rate, Median (02:00 Hr): 84.0 beats/min | Pulse rate, Min (02:00 Hr): 54 beats/min | Respiration rate, Max (02:00 Hr): 20 breaths/min | Respiration rate, Mean ± SD (02:00 Hr): 18.3 ± 1.53 breaths/min | Respiration rate, Median (02:00 Hr): 18.0 breaths/min | Respiration rate, Min (02:00 Hr): 17 breaths/min | Systolic blood pressure, Max (02:00 Hr): 156 mm of Hg | Systolic blood pressure, Mean ± SD (02:00 Hr): 143.3 ± 17.01 mm of Hg | Systolic blood pressure, Median (02:00 Hr): 150.0 mm of Hg | Systolic blood pressure, Min (02:00 Hr): 124 mm of Hg | Diastolic blood pressure Max (02:15 Hr): 85 mm of Hg | Diastolic blood pressure Mean ± SD (02:15 Hr): 69.7 ± 13.28 mm of Hg | Diastolic blood pressure Median (02:15 Hr): 62.0 mm of Hg | Diastolic blood pressure Min (02:15 Hr): 62 mm of Hg | Pulse rate, Max (02:15 Hr): 94 beats/min | Pulse rate, Mean ± SD (02:15 Hr): 74.3 ± 21.13 beats/min | Pulse rate, Median (02:15 Hr): 77.0 beats/min | Pulse rate, Min (02:15 Hr): 52 beats/min | Respiration rate, Max (02:15 Hr): 20 breaths/min | Respiration rate, Mean ± SD (02:15 Hr): 19.3 ± 1.15 breaths/min | Respiration rate, Median (02:15 Hr): 20.0 breaths/min | Respiration rate, Min (02:15 Hr): 18 breaths/min | Systolic blood pressure, Max (02:15 Hr): 159 mm of Hg | Systolic blood pressure, Mean ± SD (02:15 Hr): 142.7 ± 20.98 mm of Hg | Systolic blood pressure, Median (02:15 Hr): 150.0 mm of Hg | Systolic blood pressure, Min (02:15 Hr): 119 mm of Hg | Diastolic blood pressure Max (02:30 Hr): 83 mm of Hg | Diastolic blood pressure Mean ± SD (02:30 Hr): 76.5 ± 9.19 mm of Hg | Diastolic blood pressure Median (02:30 Hr): 76.5 mm of Hg | Diastolic blood pressure Min (02:30 Hr): 70 mm of Hg | Pulse rate, Max (02:30 Hr): 96 beats/min | Pulse rate, Mean ± SD (02:30 Hr): 85.5 ± 14.85 beats/min | Pulse rate, Median (02:30 Hr): 85.5 beats/min | Pulse rate, Min (02:30 Hr): 75 beats/min | Respiration rate, Max (02:30 Hr): 20, 20 breaths/min | Respiration rate, Mean ± SD (02:30 Hr): 20.0 ± 0.00 breaths/min | Respiration rate, Median (02:30 Hr): 20.0 breaths/min | Respiration rate, Min (02:30 Hr): 20, 20 breaths/min | Systolic blood pressure, Max (02:30 Hr): 154 mm of Hg | Systolic blood pressure, Mean ± SD (02:30 Hr): 153.0 ± 1.41 mm of Hg | Systolic blood pressure, Median (02:30 Hr): 153.0 mm of Hg | Systolic blood pressure, Min (02:30 Hr): 152 mm of Hg | Diastolic blood pressure mean values, in words (SDAT, during infusion): within clinically acceptable limits | Pulse rate mean values, in words (SDAT, during infusion): within clinically acceptable limits | Respiration rate values, in words (SDAT, during infusion): within clinically acceptable limits | Systolic blood pressure mean values, in words (SDAT, during infusion): within clinically acceptable limits | Subject stopping Criteria met (safety stoppage rule) (SDAT): only one subject's systolic BP reduced by more than 20 mm of Hg | Subject stopping Criteria met (safety stoppage rule) (SDAT, listed as Test): SBP >20 mm of Hg decrease | time for systolic BP to return to baseline levels after infusion was stopped (SDAT, the one subject with SBP decrease >20 mm of Hg): ≤ 10 min
